Reference: US4271163A, “Novel 3,4-diaza-bicyclo[4.1.0]hept-2-en-5-ones, their preparation, and therapeutic agents containing these compounds” (BASF Aktiengesellschaft, priority 1978, dated 1981)
≈ marks a conversion by molar mass, not a printed value.

Assays:
human thrombocytes = assay: Inhibition of the collagen-induced aggregation of human thrombocytes in vitro; format: cell-based; conditions: human thrombocytes in vitro; for EC50: 10 min, concentration which inhibits the collagen-induced aggregation by 50%, 10 minutes incubation, read-out: Inhibition of collagen-induced thrombocyte aggregation in vitro, EC 50%; for Inhibition of aggregation, R.A. (relative activity): acetylsalicylic acid = 1.00
Protocol: 1. Inhibition of the collagen-induced aggregation of human thrombocytes in vitro.
(§1) Thrombocyte-rich plasma is obtained by centrifuging venous citrate blood (300 g, 10 minutes duration at 4° C.). The photometric measurement of the thrombocyte aggregation is carried out with addition of MgCl2 (final concentration 10 millimoles/l) and of collagen Stago (final concentration 0.02 mg/ml) in a Born Mk 3 aggregometer. The maximum extinction change/sec is used as a measure of the aggregation.
The aggregation-inhibiting activity of the substances is tested after an incubation time of 10 minutes.
The EC 50% is taken to be the concentration causing 50% inhibition of aggregation.
(§2) The effective doses or effective concentrations were calculated from the linear relationships between the logarithm of the dose or concentration and the logarithm of the effect, by means of regression analysis.
(§3) Acetylsalicylic acid was used as the reference substance for the inhibition of thrombocyte aggregation and dihydralazine for the anti-hypertensive effect.

rat thrombocytes = assay: Inhibition of the collagen-induced aggregation of rat thrombocytes ex vivo; format: in vivo, rat (male Sprague-Dawley); conditions: rats; for ED (33%): Rattus norvegicus, dose which inhibits the collagen-induced aggregation by 33%, read-out: Inhibition of thrombocyte aggregation, ED 33%; for ED (33%) / Inhibition of thrombocyte aggregation, R.A. (relative activity): oral administration; for Inhibition of thrombocyte aggregation, R.A. (relative activity): acetylsalicylic acid = 1.00; for Inhibition of thrombocyte aggregation after oral administration in vivo (in words): versus acetylsalicylic acid
Protocol: as §1
2. Inhibition of the collagen-induced aggregation of rat thrombocytes ex vivo.
The substances are administered orally to groups of 10-15 male Sprague-Dawley rat weighing 200-250 g. 1-4 hours after administration, blood is taken under ether narcosis and thrombocyte-rich plasma is obtained by centrifuging. The aggregation after addition of collagen is measured as indicated above. The ED 33% is determined as the dose which inhibits the collagen-induced thrombocyte aggregation by 33%.
as §2, §3

narcotized rats = assay: Anti-hypertensive effect on narcotized rats; format: in vivo, rat (male Sprague-Dawley); conditions: rats under urethane narcosis, intraperitoneal; for ED (20%): Rattus norvegicus, ip, dose which lowers the blood pressure by 20%, read-out: Reduction in blood pressure, ED 20%; for Reduction in blood pressure, R.A. (relative activity): dihydralazine = 1.00
Protocol: 3. Anti-hypertensive effect on narcotized rats.
To test the anti-hypertensive effect, the substances are administered intraperitoneally to groups of 3-5 male Sprague-Dawley rats weighing 240-280 g, under urethane narcosis ([…] given intraperitoneally).
The measurement of the blood pressure in the carotid artery is carried out by means of Statham transducers. The ED 20% is determined as the dose which lowers the mean carotid blood pressure by 20%.
as §2, §3

[1] = system: spontaneously hypertonic rats; assay: Anti-hypertensive effect on spontaneously hypertonic rats; format: in vivo, rat (male spontaneously hypertonic Okamoto); conditions: for ED (20%): Rattus norvegicus, 2 h, dose which lowers the blood pressure by 20% compared to the control group; for ED (20%) / Anti-hypertensive effect, R.A.: oral administration; for Anti-hypertensive effect, R.A.: dihydralazine = 1.00
Protocol: 4. Anti-hypertensive effect on spontaneously hypertonic rats.
The substances are administered orally to groups of 4-8 male spontaneously hypertonic Okamoto rats weighing 270-340 g. Before, and 2 hours after, the administration, the systolic blood pressure is measured non-surgically by means of piezo-electric crystal sensors.
The ED 20% is determined as the dose which lowers the systolic pressure by 20%, taking into account the values found with untreated control animals.
as §2, §3

EC50 (human thrombocytes) [µg/mL] | Compound | Inhibition of aggregation, R.A. (relative activity) (human thrombocytes) | ED (33%) (rat thrombocytes) [mg/kg] | Inhibition of thrombocyte aggregation, R.A. (relative activity) (rat thrombocytes) | Inhibition of thrombocyte aggregation after oral administration in vivo (in words) (rat thrombocytes) | ED (20%) (narcotized rats) [mg/kg] | Reduction in blood pressure, R.A. (relative activity) (narcotized rats) | ED (20%) [1] [mg/kg] | Anti-hypertensive effect in spontaneously hypertonic rats after oral administration (in words) [1] | Anti-hypertensive effect, R.A. [1]
5.57 | O=C(Nc1ccc(C2=NNC(=O)C3CC23)cc1)C1CC1 (centres unmarked) [Example 13, 2-(p-cyclopropylcarbonylaminophenyl)-3,4-diaza-bicyclo[4.1.0]hept-2-en-5-one hemihydrate] | 89 | 2.5 | 53.60 | far surpasses the effect of acetylsalicylic acid | 0.0465 | 7.25 | 2.78 | demonstrable | 2.46
0.99 (≈ 3.39 µM) | CC(Cl)C(=O)Nc1ccc(C2=NNC(=O)C3CC23)cc1 (centres unmarked) [Example 20, 2-[p-(2-chloropropionylamino)-phenyl]-3,4-diaza-bicyclo[4.1.0]hept-2-en-5-one] | 499 | 3.74 | 35.83 | far surpasses the effect of acetylsalicylic acid | 0.278 | 1.21 | 10 | demonstrable | 0.69
